{"source": "patent US20170112831A1", "about": "“USE OF CCR1 ANTAGONISTS AS A TREATMENT FOR TUMORS OF THE CENTRAL NERVOUS SYSTEM” (priority 2015, published 2017)", "test_system": "GL261 murine glioma cells", "assay": "Microglia stimulated glioma invasion, Matrigel-coated invasion chamber coculture assay", "assay_type": "cell-based", "conditions": "250 nM CCR1 antagonist, 48 hours, GL261 cocultured with microglia, vs DMSO; FIG. 1", "procedure": "Microglial stimulation of glioma invasion. CCR1 antagonists were screened using the glioblastoma cells and microglia invasion assay described below.\nGL261 murine glioma cells expressing the fluorescent protein m-Cherry and microglial (MG) cells stained with cell tracker green (CMFDA; Invitrogen) were cocultured on Matrigel-coated invasion chambers (Becton, Dickinson and Company). Cells were plated at a density per invasion chamber of 100,000 labeled GL261 cells with an additional 150,000 unlabelled GL261 cells or with 50,000 unlabelled GL261 and 50,000 MG cells in M-SFM with 0.3% BSA. Invasion chambers were incubated for 48 hours in the presence of DMSO, or 250 nM of the CCR1 antagonist, after which they were fixed in 3.7% paraformaldehyde in PBS. Imaging of the cells on the bottom of the filter was performed using an AMG EVOS epifluorescent microscope. The extent of invasion was quantified by counting the number of glioblastoma cells (green) that were on the underside of the filter in at least seven 10× fields. The final number of invasive cells in the control was multiplied by 0.75 to normalize."}
{"smiles": "Cc1nnc([C@H]2CCCN2C(=O)Nc2ccc(C(F)(F)F)cc2)n1Cc1ccc(Cl)cc1", "note": "[Compound #1]", "values": [{"measurement": "reduction in the number of invasive glioma cells", "result": "greater than 50%"}]}
